In patent publication EP4324461A1, “(E)-N-CINAMOYLAMINOALKANOLES WITH MELANOGENESIS INHIBITORY ACTIVITY” (UNIWERSYTET JAGIELLONSKI, priority 2022, dated 2024):

What was measured:
Hepatocarcinoma HepG2 [1] = experiment: Safety, LDH test in HepG2; type: cell-based; conditions: 48 hours, positive control Triton X-100
Procedure: (§1) In order to test the safety of the compounds, both normal human cells were used: keratinocytes (HaCaT), fibroblasts (BJ), primary melanocytes that occur in the skin, as well as human cancer cells: the hepatocarcinoma line HepG2 and the neuroblastoma line SH-SY5Y, which are considered a model for the assessment of hepatocytotoxicity and neurocytotoxicity. The concentrations of the tested compounds in the range of 250-100 µM were used in the studies. The cell lines used in the research were purchased from the American Type Culture Collection (ATCC) and were cultured in media recommended by the manufacturer with the addition of FBS and antibiotics in an incubator ensuring appropriate culture conditions, i.e. humidity, temperature and CO2 concentration. Cells were seeded into multiwell plates and incubated with the test compounds for 48 hours. After this time, MTT and LDH tests were performed to assess cell viability. The MTT test is based on the ability to transform the substrate: [3-(4,5-dimethyl-2-thiazolyl)-2,5-diphenyl-2H-tetrazolium bromide into a colored product only by living cells. The absorbance at 570 nm, which corresponds to the absorption maximum for the product, is directly proportional to cell viability. The LDH test is based on testing the activity of the enzyme lactate dehydrogenase in the culture medium, which is released from cells as a result of damage to the cell membrane, e.g. as a result of cell death. Triton X-100 was used as a positive control in the test. The determination is colorimetric, the substrate is transformed by the released enzyme into a colored product, an increase in absorbance indicates a larger amount of the released enzyme, and thus confirms greater damage to cell membranes. Tables 7 and 8 present the results obtained, which correspond to the viability of cells incubated with the compounds in relation to the viability of cells constituting a control sample, i.e. incubated with the solvent (DMSO) at the same concentration as in the case of the groups tested in the MTT test or in relation to the results obtained for the Triton X-100 positive control in the LDH test. They indicate that the compounds are safe at the concentrations tested. Table 7. Viability of tested normal human cell lines: keratinocytes (HaCaT), fibroblasts (BJ) and primary melanocytes after incubation with the tested compounds - determination in the MTT test (% of solvent control ± SD) and LDH (percentage of positive control - Triton X-100.

Keratinocytes (HaCaT) [2] = experiment: Safety, LDH test in keratinocytes; type: cell-based; conditions: 48 hours, positive control Triton X-100
Procedure: as §1

neuroblastoma SH-SY5Y [3] = experiment: Safety, MTT test in SH-SY5Y; type: cell-based; conditions: 48 hours
Procedure: as §1

Hepatocarcinoma HepG2 [4] = experiment: Safety, MTT test in HepG2; type: cell-based; conditions: 48 hours
Procedure: as §1

Primary melanocytes = experiment: Safety, MTT test in primary melanocytes; type: cell-based; conditions: 48 hours
Procedure: as §1

Fibroblasts (BJ) [5] = experiment: Safety, MTT test in fibroblasts; type: cell-based; conditions: 48 hours
Procedure: as §1

S. typhimurium TA100 = experiment: Ames microplate test, TA100; type: cell-based, Salmonella typhimurium;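 further: reference level is the mean solvent-control yellow wells plus SD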
Procedure: (§2) Bacteria were grown overnight in growth medium.
(§3) Table 9. Ames microplate test results.

Keratinocytes (HaCaT) [6] = experiment: Safety, MTT test in keratinocytes; type: cell-based; conditions: 48 hours
Procedure: as §1

S. typhimurium TA98 = experiment: Ames microplate test, TA98; type: cell-based, Salmonella typhimurium;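 further: reference level is the mean solvent-control yellow wells plus SD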
Procedure: as §2, §3

[7] = system: Chinese hamster ovary cell line (CHO-K1); experiment: Cytotoxicity in CHO-K1 cells (MTT) before the micronucleus test; type: cell-based; conditions: 24 hours
In short: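 CHO-K1 cells in F-12K with 10% FBS, 37 °C, 5% CO2, exposed to compounds for 24 hours. Viability by MTT, relative to DMSO vehicle at matching concentration; used to pick safe concentrations for the micronucleus test.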

E. coli WP2 = experiment: Ames microplate test, E. coli WP2;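 further: bacteria treated 90 min at 37 °C in 24-well plates, then indicator medium dispensed to 384-well plates and incubated 48 h before yellow-well counting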
neuroblastoma SH-SY5Y [8] = experiment: Safety, LDH test in SH-SY5Y; type: cell-based; conditions: 48 hours, positive control Triton X-100
Procedure: as §1

S. typhimurium TA1537 = experiment: Ames microplate test, TA1537; type: cell-based, Salmonella typhimurium;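 further: reference level is the mean solvent-control yellow wells plus SD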
Procedure: as §2, §3

Fibroblasts (BJ) [9] = experiment: Safety, LDH test in fibroblasts; type: cell-based; conditions: 48 hours, positive control Triton X-100
Procedure: as §1

Compound: O=C(/C=C/c1ccc(Cl)cc1)NCCCCCO [Compound A-111, (2E)-3-(4-chlorophenyl)-N-(5-hydroxypentyl)prop-2-enamide]
- Hepatocarcinoma HepG2 LDH (Hepatocarcinoma HepG2 [1]; 100 µM): 4.90 percentage of positive control
- Hepatocarcinoma HepG2 LDH (Hepatocarcinoma HepG2 [1]; 150 µM): 4.73 percentage of positive control
- Hepatocarcinoma HepG2 LDH (Hepatocarcinoma HepG2 [1]; 200 µM): 5.48 percentage of positive control
- Hepatocarcinoma HepG2 LDH (Hepatocarcinoma HepG2 [1]; 250 µM): 9.75 percentage of positive control
- Keratinocytes (HaCaT) LDH (Keratinocytes (HaCaT) [2]; 100 µM): 4.69 percentage of positive control
- Keratinocytes (HaCaT) LDH (Keratinocytes (HaCaT) [2]; 150 µM): 4.43 percentage of positive control
- Keratinocytes (HaCaT) LDH (Keratinocytes (HaCaT) [2]; 200 µM): 6.49 percentage of positive control
- Keratinocytes (HaCaT) LDH (Keratinocytes (HaCaT) [2]; 250 µM): 13.55 percentage of positive control
- Neuroblastoma SH-SYSY MTT (neuroblastoma SH-SY5Y [3]; 100 µM): 100.14±3.22 % of solvent control
- Neuroblastoma SH-SYSY MTT (neuroblastoma SH-SY5Y [3]; 150 µM): 99.32±3.36 % of solvent control
- Neuroblastoma SH-SYSY MTT (neuroblastoma SH-SY5Y [3]; 200 µM): 100.55±2.31 % of solvent control
- Neuroblastoma SH-SYSY MTT (neuroblastoma SH-SY5Y [3]; 250 µM): 99.93±4.36 % of solvent control
- Hepatocarcinoma HepG2 MTT (Hepatocarcinoma HepG2 [4]; 100 µM): 101.10±6.01 % of solvent control
- Hepatocarcinoma HepG2 MTT (Hepatocarcinoma HepG2 [4]; 150 µM): 97.87±3.27 % of solvent control
- Hepatocarcinoma HepG2 MTT (Hepatocarcinoma HepG2 [4]; 200 µM): 98.19±3.27 % of solvent control
- Hepatocarcinoma HepG2 MTT (Hepatocarcinoma HepG2 [4]; 250 µM): 96.27±2.57 % of solvent control
- Primary melanocytes MTT (Primary melanocytes; 100 µM): 104.51±1.19 % of solvent control
- Primary melanocytes MTT (Primary melanocytes; 150 µM): 103.09±1.79 % of solvent control
- Primary melanocytes MTT (Primary melanocytes; 200 µM): 99.25±1.92 % of solvent control
- Primary melanocytes MTT (Primary melanocytes; 250 µM): 93.39±1.60 % of solvent control
- Fibroblasts (BJ) MTT (Fibroblasts (BJ) [5]; 100 µM): 99.88±5.25 % of solvent control
- Fibroblasts (BJ) MTT (Fibroblasts (BJ) [5]; 150 µM): 100.94±3.37 % of solvent control
- Fibroblasts (BJ) MTT (Fibroblasts (BJ) [5]; 200 µM): 98.94±4.04 % of solvent control
- Fibroblasts (BJ) MTT (Fibroblasts (BJ) [5]; 250 µM): 94.51±5.03 % of solvent control
- Increase in the number of yellow wells compared to the reference level (S. typhimurium TA100; 0.5 mM, +S9): 0.97
- Increase in the number of yellow wells compared to the reference level (S. typhimurium TA100; 0.5 mM, without S9): 0.74
- Increase in the number of yellow wells compared to the reference level (S. typhimurium TA100; 1.0 mM, +S9): 0.47
- Increase in the number of yellow wells compared to the reference level (S. typhimurium TA100; 1.0 mM, without S9): 0.39
- Increase in the number of yellow wells compared to the reference level (S. typhimurium TA100; 2.0 mM, +S9): 0.67
- Increase in the number of yellow wells compared to the reference level (S. typhimurium TA100; 2.0 mM, without S9): 0.42
- Keratinocytes (HaCaT) MTT (Keratinocytes (HaCaT) [6]; 100 µM): 101.68±3.45 % of solvent control
- Keratinocytes (HaCaT) MTT (Keratinocytes (HaCaT) [6]; 150 µM): 101.56±1.94 % of solvent control
- Keratinocytes (HaCaT) MTT (Keratinocytes (HaCaT) [6]; 200 µM): 101.04±2.77 % of solvent control
- Keratinocytes (HaCaT) MTT (Keratinocytes (HaCaT) [6]; 250 µM): 91.57±2.10 % of solvent control
- Increase in the number of yellow wells compared to the reference level (S. typhimurium TA98; 0.5 mM, +S9): 1.50
- Increase in the number of yellow wells compared to the reference level (S. typhimurium TA98; 0.5 mM, without S9): 0.7
- Increase in the number of yellow wells compared to the reference level (S. typhimurium TA98; 1.0 mM, +S9): 0.83
- Increase in the number of yellow wells compared to the reference level (S. typhimurium TA98; 1.0 mM, without S9): 0.44
- Increase in the number of yellow wells compared to the reference level (S. typhimurium TA98; 2.0 mM, +S9): 1.50
- Increase in the number of yellow wells compared to the reference level (S. typhimurium TA98; 2.0 mM, without S9): 1.00
- % Viability [mean] ([7]; 100 µM): 86.1%
- % Viability [mean] ([7]; 150 µM): 95.6%
- % Viability [mean] ([7]; 200 µM): 98.6%
- Increase in the number of yellow wells compared to the reference level (E. coli WP2; 0.5 mM, +S9): 0.62
- Increase in the number of yellow wells compared to the reference level (E. coli WP2; 0.5 mM, without S9): 1.46
- Increase in the number of yellow wells compared to the reference level (E. coli WP2; 1.0 mM, +S9): 0.71
- Increase in the number of yellow wells compared to the reference level (E. coli WP2; 1.0 mM, without S9): 1.10
- Increase in the number of yellow wells compared to the reference level (E. coli WP2; 2.0 mM, +S9): 0.98
- Increase in the number of yellow wells compared to the reference level (E. coli WP2; 2.0 mM, without S9): 1.10
- Neuroblastoma SH-SYSY LDH (neuroblastoma SH-SY5Y [8]; 100 µM): 4.90 percentage of positive control
- Neuroblastoma SH-SYSY LDH (neuroblastoma SH-SY5Y [8]; 150 µM): 4.61 percentage of positive control
- Neuroblastoma SH-SYSY LDH (neuroblastoma SH-SY5Y [8]; 200 µM): 5.98 percentage of positive control
- Neuroblastoma SH-SYSY LDH (neuroblastoma SH-SY5Y [8]; 250 µM): 6.77 percentage of positive control
- Increase in the number of yellow wells compared to the reference level (S. typhimurium TA1537; 0.5 mM, +S9): 0.27
- Increase in the number of yellow wells compared to the reference level (S. typhimurium TA1537; 0.5 mM, without S9): 0.80
- Increase in the number of yellow wells compared to the reference level (S. typhimurium TA1537; 1.0 mM, +S9): 0.45
- Increase in the number of yellow wells compared to the reference level (S. typhimurium TA1537; 1.0 mM, without S9): 0.54
- Increase in the number of yellow wells compared to the reference level (S. typhimurium TA1537; 2.0 mM, +S9): 0.27
- Increase in the number of yellow wells compared to the reference level (S. typhimurium TA1537; 2.0 mM, without S9): 0.54
- Fibroblasts (BJ) LDH (Fibroblasts (BJ) [9]; 100 µM): 5.25 percentage of positive control
- Fibroblasts (BJ) LDH (Fibroblasts (BJ) [9]; 150 µM): 5.37 percentage of positive control
- Fibroblasts (BJ) LDH (Fibroblasts (BJ) [9]; 200 µM): 8.43 percentage of positive control
- Fibroblasts (BJ) LDH (Fibroblasts (BJ) [9]; 250 µM): 14.90 percentage of positive control
